Article PMC9676650, “Binding pocket stabilization by high-throughput screening of yeast display libraries” (Frontiers in Molecular Biosciences, 2022)
Residue numbers refer to the chain shown, from its start.

How the values were obtained:
FKBP51 variant G64T = molecular target: T1, FKBP51 variant G64T (Homo sapiens, UniProt Q13451, G64T); assay: Fluorescence polarization tracer binding, FKBP51 G64T; settings: for Fold change in Kd improvement: FKBP51 G64T compared to WT; for Kd: FKBP51 G64T, 0.5 nM SAFit-FL, 5 nM Mcyc-TA or 1 nM FK [431]-TA, 30 min room temperature
T1 construct: made in house; host or cells: E. coli BL21 (DE3)
T1 sequence (Q13451 1-140 G64T): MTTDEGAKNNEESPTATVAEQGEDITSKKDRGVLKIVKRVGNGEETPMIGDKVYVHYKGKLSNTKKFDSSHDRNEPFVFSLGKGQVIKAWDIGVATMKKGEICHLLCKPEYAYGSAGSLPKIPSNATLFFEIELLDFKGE
Description: (§1) All ligands and tracers used for fluorescence polarization assays had purities of more than 95%. The following ligands and tracers were used for fluorescence polarization and FACS screening experiments: •SAFit-FL tracer (1): Fluorescein conjugated analog of the iFit ligand class. •Mcyc-TA tracer (2): TAMRA conjugated macrocyclic ligand (5). •FK [431]-TA tracer (3): TAMRA conjugated FK [431] ligand (6). •SAFit1 ligand (4): analog of the iFit ligand class. •macrocyclic ligand (5):macrocyclic analog of the SAFit class ligands. •FK [431] ligand (6):bicyclic analog of the immunosuppressive drug FK506
(§2) The binding of the generated FKBP51 variants to different conformation-sensitive FKBP ligands was investigated by fluorescence polarization assays. Therefore, a serial dilution of the respective FKBP51 variant in assay buffer (20 mM HEPES pH 8.0, 150 mM NaCl, 0.015% Triton X-100) was placed in a 384-well assay plate and a defined amount of the respective fluorescent tracer (0.5 nM of the SAFit based tracer SAFit-FL (1), 5 nM of the macrocyclic tracer Mcyc-TA 2) or 1 nM of the FK [431]-TA 3) in assay buffer was added to the protein buffer mixture. After incubation for 30 min at room temperature, the fluorescence polarization was measured with a plate reader. The obtained results for each 3 independent experiments were normalized with respect to the maximal binding signal and fitted to a one-site binding model as described by [Wang et al., 1992] yielding the respective binding constants. tracer bound=100/Lt×0.5×(Rt+Lt+KD−(Rt+Lt+KD)^2−4×LtRt) With L t , total concentration of the tracer, R t , total concentration of the receptor and K D binding constant of the complex RL.

FKBP51 variant G64R = molecular target: T2, FKBP51 variant G64R (Homo sapiens, UniProt Q13451, G64R); assay: Fluorescence polarization tracer binding, FKBP51 G64R; settings: for Fold change in Kd improvement: FKBP51 G64R compared to WT; for Kd: FKBP51 G64R, 0.5 nM SAFit-FL, 5 nM Mcyc-TA or 1 nM FK [431]-TA, 30 min room temperature
T2 construct: made in house; host or cells: E. coli BL21 (DE3)
T2 sequence (Q13451 1-140 G64R): T1 sequence (Q13451 1-140 G64T) with T64R
Description: as §1, §2

FKBP51 variant D68N = molecular target: T3, FKBP51 variant D68N (Homo sapiens, UniProt Q13451, D68N); assay: Fluorescence polarization tracer binding, FKBP51 D68N; settings: for Fold change in Kd improvement: FKBP51 D68N compared to WT; for Kd: FKBP51 D68N, 0.5 nM SAFit-FL, 5 nM Mcyc-TA or 1 nM FK [431]-TA, 30 min room temperature
T3 construct: made in house; host or cells: E. coli BL21 (DE3)
T3 sequence (Q13451 1-140 D68N): T1 sequence (Q13451 1-140 G64T) with T64G, D68N
Description: as §1, §2

FKBP51 variant G64K = molecular target: T4, FKBP51 variant G64K (Homo sapiens, UniProt Q13451, G64K); assay: Fluorescence polarization tracer binding, FKBP51 G64K; settings: for Fold change in Kd improvement: FKBP51 G64K compared to WT; for Kd: FKBP51 G64K, 0.5 nM SAFit-FL, 5 nM Mcyc-TA or 1 nM FK [431]-TA, 30 min room temperature
T4 construct: made in house; host or cells: E. coli BL21 (DE3)
T4 sequence (Q13451 1-140 G64K): T1 sequence (Q13451 1-140 G64T) with T64K
Description: as §1, §2

FKBP51 variant N63A = molecular target: T5, FKBP51 variant N63A (Homo sapiens, UniProt Q13451, N63A); assay: Fluorescence polarization tracer binding, FKBP51 N63A; settings: for Fold change in Kd improvement: FKBP51 N63A compared to WT; for Kd: FKBP51 N63A, 0.5 nM SAFit-FL, 5 nM Mcyc-TA or 1 nM FK [431]-TA, 30 min room temperature
T5 construct: made in house; host or cells: E. coli BL21 (DE3)
T5 sequence (Q13451 1-140 N63A): T1 sequence (Q13451 1-140 G64T) with N63A, T64G
Description: as §1, §2

FKBP51 variant G64D = molecular target: T6, FKBP51 variant G64D (Homo sapiens, UniProt Q13451, G64D); assay: Fluorescence polarization tracer binding, FKBP51 G64D; settings: for Fold change in Kd improvement: FKBP51 G64D compared to WT; for Kd: FKBP51 G64D, 0.5 nM SAFit-FL, 5 nM Mcyc-TA or 1 nM FK [431]-TA, 30 min room temperature
T6 construct: made in house; host or cells: E. coli BL21 (DE3)
T6 sequence (Q13451 1-140 G64D): T1 sequence (Q13451 1-140 G64T) with T64D
Description: as §1, §2

FKBP51 WT (FK1 domain) = molecular target: T7, FKBP51 WT (FK1 domain) (Homo sapiens, UniProt Q13451); assay: Fluorescence polarization tracer binding, FKBP51 WT; settings: for Fold change in Kd improvement: FKBP51 WT (reference); for Kd: FKBP51 WT, 0.5 nM SAFit-FL, 5 nM Mcyc-TA or 1 nM FK [431]-TA, 30 min room temperature, 3 independent experiments
T7 construct: made in house; host or cells: E. coli BL21 (DE3)
T7 sequence (Q13451 1-140): T1 sequence (Q13451 1-140 G64T) with T64G
Description: as §1, §2

FKBP51 variant F67W = molecular target: T8, FKBP51 variant F67W (Homo sapiens, UniProt Q13451, F67W); assay: Fluorescence polarization tracer binding, FKBP51 F67W; settings: for Fold change in Kd improvement: FKBP51 F67W compared to WT
T8 construct: made in house; host or cells: E. coli BL21 (DE3)
T8 sequence (Q13451 1-140 F67W): T1 sequence (Q13451 1-140 G64T) with T64G, F67W
Description: as §1, §2

SMILES | Fold change in Kd improvement (FKBP51 variant G64T) [fold] | Kd (FKBP51 variant G64T) [µM] | Fold change in Kd improvement (FKBP51 variant G64R) [fold] | Kd (FKBP51 variant G64R) [µM] | Fold change in Kd improvement (FKBP51 variant D68N) [fold] | Kd (FKBP51 variant D68N) [µM] | Fold change in Kd improvement (FKBP51 variant G64K) [fold] | Kd (FKBP51 variant G64K) [µM] | Fold change in Kd improvement (FKBP51 variant N63A) [fold] | Kd (FKBP51 variant N63A) [µM] | Fold change in Kd improvement (FKBP51 variant G64D) [fold] | Kd (FKBP51 variant G64D) [µM] | Fold change in Kd improvement (FKBP51 WT (FK1 domain)) [fold] | Kd (FKBP51 WT (FK1 domain)) [µM] | Fold change in Kd improvement (FKBP51 variant F67W) [fold] | Kd (FKBP51 variant F67W; FKBP51 F67W, 0.5 nM SAFit-FL, 5 nM Mcyc-TA or 1 nM FK [431]-TA, 30 min room temperature) [µM]
CN(C)c1ccc2c(-c3cc(C(=O)NCCn4cc([C@H]5CN(Cc6ccccn6)C(=O)[C@@H]6CCC[C@H]5N6S(=O)(=O)c5cc(Cl)cc(Cl)c5)nn4)ccc3C(=O)O)c3ccc(=[N+](C)C)cc-3oc2c1 [FK [431]-TA] | 0.084 | 0.061 ± 0.002 | 0.159 | 0.032 ± 0.002 | 0.035 | 0.146 ± 0.006 | 0.283 | 0.018 ± 0.001 | 0.850 | 0.006 ± 0.0002 | 0.300 | 0.017 ± 0.001 | 1 | 0.0051 ± 0.0001 | 0.004 | 
COc1ccc(CC[C@H]2OC(=O)[C@@H]3CCCCN3C(=O)[C@@H](C3CCCCC3)NC(=O)C(C)(C)NC(=O)COc3cc(OCCNC(=O)c4ccc(C(=O)O)c(-c5c6ccc(=[N+](C)C)cc-6oc6cc(N(C)C)ccc56)c4)cc2c3)cc1OC [Mcyc-TA] | 1.41 | 0.017 ± 0.001 | 2.42 | 0.0099 ± 0.001 | 4.00 | 0.006 ± 0.001 | 6.86 | 0.0035 ± 0.0005 | 5.58 | 0.0043 ± 0.0005 | 2.76 | 0.0087 ± 0.001 | 1.00 | 0.024 ± 0.002 | 1.50 | 0.016 ± 0.001
